# Results reported in the METLIN SMRT retention time set (Domingo-Almenara et al. 2019).
# Assay: gradient 5% acetonitrile 3 min, to 50% in 2 min, to 85% in 15 min, held 3 min, 100 µL/min
# Details: column: Zorbax Extend-C18 2.1 x 50 mm; eluents: water / acetonitrile, 0.1% formic acid
# How it was run: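 In both positive and negative ionization mode, a quadrupole time-of-flight mass spectrometer coupled to HPLC analyzed pure standards run in mixtures of ~100 molecules. The Zorbax Extend-C18 column (2.1 × 50 mm, 1.8 μm) was operated at 100 μL/min with water and acetonitrile, each containing 0.1% formic acid. The dead volume was 40 μL and the dwell volume 900 μL. Retention time came from adduct peaks that were computationally picked and individually inspected by hand.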
row,Compound,RP-LC retention time
1,CCNc1cc(N2CCCC(CCC(=O)NCCc3cccs3)C2)ncn1 (stereo not drawn),639 s
2,CCOC(=O)c1sc(NC(=O)Cc2ccc3c(c2)OCO3)cc1C,856 s
3,Cc1cc2c(=O)n(CC(=O)Nc3cccc(C(F)(F)F)c3)ccc2s1,886 s
4,CCc1noc(NC(C)=O)c1-c1ccc(C)c(S(=O)(=O)Nc2ccc(C)c(F)c2)c1,856 s
5,CN(C)CCNC(=O)C1CCN(c2nn3cc(-c4ccc(F)cc4)nc3s2)CC1,636 s
6,O=C(CCC(=O)N1CC2CCCN2c2ccccc21)N1CCN(Cc2ccc3c(c2)OCO3)CC1 (stereo not drawn),692 s
7,CCOc1ccccc1NC(=O)N1CCC(C)(C(=O)NCc2ccc(F)cc2)CC1,906 s
8,CCN(CC)c1ccc(-c2noc(CN3CCC4(CC3)OCCO4)n2)cn1,579 s
9,Cc1ccc(S(=O)(=O)N2CCC(c3noc(-c4ccccc4C)n3)CC2)cc1C,1260 s
10,CCC(=O)N1CCc2cc(N3CC(C(=O)NC4CCCC4)CC3=O)ccc21 (stereo not drawn),686 s
11,CC(=O)N1CCC([C@@H]2CN(C(=O)C3(C)CCCCC3)C[C@H]2CO)CC1,631 s
12,Cc1ccc(C)c(N2CCN(c3ccncc3N)CC2)c1,777 s
13,CN1CCN(CCCNC(=O)CCCN2C(=O)C(c3ccccc3)Oc3cccnc32)CC1 (stereo not drawn),595 s
14,CCOC(=O)c1[nH]c(C)c(C(=O)C(C)N(C(=O)c2ccc(Cl)cc2)C2CC2)c1C (stereo not drawn),978 s
15,CCNS(=O)(=O)c1ccc(-c2c(C)noc2C)cc1,762 s
16,CCN1CCN(Cc2ccc(NC(=O)c3ccc(C)c(NC(=O)c4cncc(-c5cccs5)c4)c3)cc2C(F)(F)F)CC1,844 s
17,CCc1ccc(C2=C(C)C(N3CCCN(C(=O)C4CCCO4)CC3)=NS2(=O)=O)cc1 (stereo not drawn),778 s
18,Cn1cc(CCN2CCC(C(=O)NCc3ccc(Cl)cc3)CC2)c2cccnc21,617 s
19,Cc1cc(C)cc(NC(=O)C2CCCN(S(=O)(=O)c3c[nH]c(C(=O)N4CCCC4)c3)C2)c1 (stereo not drawn),874 s
20,COc1ccc(N2CC(C(=O)Nc3cc(C)nn3C3CCS(=O)(=O)C3)CC2=O)cc1 (stereo not drawn),638 s
21,CN(CC1CCOCC1)S(=O)(=O)c1cccc(Cl)c1,876 s
22,CCc1cc(=O)n(CC(=O)Nc2ccc(OC)c(OC)c2)c(N2CCOCC2)n1,646 s
23,Cc1nc(Nc2ccc(Br)cn2)sc1C(=O)NC1CC1,735 s
24,CCC1=C[C@@H]2CN3CCc4c([nH]c5ccccc45)[C@@](C(=O)OC)(C2)[C@@H]13,728 s

row,Compound,RP-LC retention time
1,CC1=NS(=O)(=O)N(C)C=C1C(=O)OCc1cc(F)ccc1F,935 s
2,CCC(=O)N1CCc2cc(N3CC(C(=O)Nc4ccc(OC)cc4C)CC3=O)ccc21 (stereo not drawn),720 s
3,COc1ccc(C(=O)N2CCC3(CC2)N=C(c2ccc(Cl)cc2)NO3)cc1,851 s
4,O=C1Nc2ccccc2SC1C(=O)N1CCC(C(=O)N2CCN(c3ccc(F)cc3)CC2)CC1 (stereo not drawn),778 s
5,CCNC(=O)CN1C(=O)CCn2nc(-c3cn(C)c4ccccc34)cc21,656 s
6,COc1ccc(C)cc1NC(=O)Cn1nc(C(=O)N2CCN(C)CC2)cc1C,583 s
7,O=C(Cn1ccnc1-c1ccnc(N2CCSCC2)c1)NC1CCCC1,619 s
8,O=C1CCC2(C(=O)N3CCN(c4ccccn4)CC3)CCC=C2N1C1CCCC1 (stereo not drawn),579 s
9,Cc1oc(C2CCN(C(=O)c3cc4ccccc4[nH]3)CC2)nc1C(=O)N1CCSCC1,847 s
10,CC1=C(c2ccc(C)cc2)S(=O)(=O)N=C1N1CCCN(C(=O)c2ccoc2)CC1,786 s
11,Cc1cn2c(S(=O)(=O)NC3CCCCC3)c(C(C)C)nc2s1,999 s
12,CNC(=O)N1CC(C)Oc2ccc(C)cc21 (stereo not drawn),765 s
13,COC(=O)c1cc(S(=O)(=O)N2CCCC2C(=O)NCc2ccc(F)cc2)cn1C (stereo not drawn),799 s
14,Cc1ccc(Cl)cc1N1CCN(CC(O)COc2ccccc2[N+](=O)[O-])CC1 (stereo not drawn),626 s
15,CCN(C1CCOCC1)C1CN(S(=O)(=O)c2cccc(F)c2)C1,597 s
16,O=C(CC1CCCCC1)N1CCC(c2ccncc2)CC1,622 s
17,O=S(=O)(c1ccc(F)cc1)N1[C@H]2CC[C@@H]1c1cncnc1C2,709 s
18,Cn1cccc1C(CNS(=O)(=O)c1ccc2c(c1)OCCO2)N1CCOCC1 (stereo not drawn),563 s
19,COc1ccc(Cl)cc1NS(=O)(=O)c1ccc2c(c1)CCCC(=O)N2,765 s
20,O=C(Nc1ccc(F)cc1)OC1CCCC(NC(=O)c2ccc(Br)o2)C1 (stereo not drawn),853 s
21,O=C(CCc1nnn2c1CN(C(=O)COc1ccc(F)cc1)CC2)N1CCCC1,665 s
22,Cc1ccc(CNC(=O)C2(C)CCN(C(=O)Nc3ccc(C)c(F)c3)CC2)cc1,914 s
23,CCN1CCN(CCNC(=O)C2CCCN(S(=O)(=O)c3ccc4c(ccn4CC)c3)C2)CC1 (stereo not drawn),626 s

# Further lines, results first:
row,RP-LC retention time,Compound
1,798 s,COCCCNC(=O)NC(C(=O)N1CCc2ccccc21)c1ccccc1 (stereo not drawn)
2,858 s,Cn1ncc2c(N3CCCC3)nc(C(=O)NCc3ccc(Cl)cc3)nc21
3,1100 s,COc1ccccc1-c1nnc(-c2ccc(Cl)c(S(=O)(=O)N3CCCCC3)c2)o1
4,761 s,CS(=O)(=O)N1CCCN(C(=O)C2(c3ccccc3)CC2)c2ccccc21
5,860 s,COc1ccc(/C=C/c2nn3c(-c4cccnc4)nnc3s2)cc1
6,942 s,Cc1nc(-c2cn(C)c3ncccc23)sc1C(=O)NCc1ccccc1Cl
7,1240 s,CCOc1ccc(-c2noc(Cc3nc(-c4ccccc4)cs3)n2)cc1
8,1160 s,CCOC(=O)c1ccccc1NC(=O)Cn1cccc(-c2nc(-c3ccc(Cl)cc3)no2)c1=O
9,681 s,CNC(=O)C1CCCN(c2nc3ncn(CC(=O)NCCc4ccc(Cl)cc4)c(=O)c3s2)C1 (stereo not drawn)
10,1190 s,CCc1nc2cc(-c3noc(-c4ccc(F)cc4)n3)ccc2o1
11,864 s,Cc1ccc(NC(=O)Cn2nc3c(Oc4ccc(Cl)cc4)nccn3c2=O)cc1
12,846 s,CC12CC(NC(=O)N1c1cccc(C(=O)NCc3ccco3)c1)c1cc(Br)ccc1O2 (stereo not drawn)
13,955 s,Cc1ccccc1S(=O)(=O)N1CCc2c(c(-c3nnc(-c4ccc(F)cc4)o3)nn2C)C1
14,674 s,O=C(Nc1cccc2ccc(-n3ccnc3)nc12)C1COc2ccccc2O1 (stereo not drawn)
15,737 s,C[C@@H](CN1CCC(Cc2ccccc2)CC1)[C@@H](O)c1ccc(O)cc1
16,921 s,Cc1cccc2c(=O)n(C3CCN(S(=O)(=O)c4ccccc4)CC3)cnc12
17,1080 s,CCCNC(=O)c1c(O)c2cccnc2n(-c2ccc(OC)cc2)c1=O
18,1250 s,COc1ccc(C2Cn3nnc(-c4nc(-c5ccc(OC(C)C)cc5)no4)c3CO2)cc1 (stereo not drawn)
19,584 s,COc1ccccc1-c1nc(Cn2ccnc2C)no1
20,650 s,CCc1nc2ccccc2c(C(=O)NC2CCCCC2)c1C
21,1120 s,O=C1COc2ccccc2N1Cc1nc(-c2cccc(Br)c2)no1

row,RP-LC retention time,Compound
1,789 s,CCc1cc(C2CCCN2C(=O)NCCc2ccccc2)on1 (stereo not drawn)
2,1130 s,COc1ccc(Cl)cc1NC(=O)CSc1nnc2c3cc(-c4ccc(C)c(C)c4)nn3ccn12
3,842 s,O=C(CSc1ccc(NC(=O)c2cccs2)nn1)Nc1ccccc1C(F)(F)F
4,905 s,Cc1ccc(-c2cn3ccn(-c4ccc(Cl)cc4)c(=O)c3n2)cc1
5,704 s,N#Cc1c(NC(=O)CSc2nnc3ccccn23)sc2c1CCC2
6,1040 s,O=C(Nc1ccccc1SCc1nnc(-c2ccccc2)o1)c1ccc(Br)o1
7,1080 s,O=c1c2sccc2n(Cc2nc(-c3ccc(OC(F)(F)F)cc3)no2)c(=O)n1-c1ccccc1
8,909 s,COc1ccc(Cl)cc1NC(=O)N1CCC2(CC1)N=C(c1ccccc1)C(=O)N2
9,1010 s,CC1Cc2ccccc2N1C(=O)CSc1nnc(-c2ccccc2)o1 (stereo not drawn)
10,1010 s,Cc1ccc2c(c1)N(Cc1ccccc1)N=C(C(=O)N1CCCCC1)S2(=O)=O
11,763 s,Cc1cccc(-c2ncccc2CNS(=O)(=O)c2cccc(Cl)c2)c1
12,742 s,O=C1CCCN1c1ccc(Cn2nc3ccc(-c4ccc(Cl)cc4)nn3c2=O)cc1
13,1090 s,CCOc1ccccc1NC(=O)CSc1cc(N2CCN(c3ccc(OC)cc3)CC2)ncn1
14,891 s,COc1ccc(-n2ccn3cc(-c4ccc(Br)cc4)nc3c2=O)cc1
15,914 s,O=C(c1ccccc1F)N1CCN(C(=O)c2nnn3c2COC(c2ccc(Cl)cc2)C3)CC1 (stereo not drawn)
16,916 s,COc1cccc(S(=O)(=O)N2CCc3c(c(-c4nnc(-c5ccccc5F)o4)nn3C)C2)c1
17,888 s,COc1ccc(N2CCN(c3nccc4ccc(C(=O)NCCC5=CCCCC5)cc34)CC2)cc1
18,825 s,Cc1cccc(CNC(=O)C2c3ccccc3CC(=O)N2C(C)C)c1 (stereo not drawn)
19,1120 s,c1ccc(Cc2nnc3sc(-c4ccc5ccccc5n4)nn23)cc1
20,564 s,CN1CCN(C(CNC(=O)Cc2cccc3ccccc23)c2ccsc2)CC1 (stereo not drawn)
